Biological target: T1, human TGR5 (Homo sapiens, UniProt Q8TDU6)
T1 construct: expressed in transfected cells; host or cells: HEK293
T1 sequence (Q8TDU6 1-330): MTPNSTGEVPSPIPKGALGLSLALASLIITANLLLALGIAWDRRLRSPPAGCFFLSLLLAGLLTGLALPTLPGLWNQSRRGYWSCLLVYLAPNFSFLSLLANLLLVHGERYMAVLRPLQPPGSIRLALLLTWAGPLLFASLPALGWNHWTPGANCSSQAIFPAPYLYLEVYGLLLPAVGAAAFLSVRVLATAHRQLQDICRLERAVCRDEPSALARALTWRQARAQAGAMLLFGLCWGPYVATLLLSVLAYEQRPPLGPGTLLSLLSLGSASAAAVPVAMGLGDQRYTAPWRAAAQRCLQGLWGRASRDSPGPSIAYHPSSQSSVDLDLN
Experiment: Cell-based TGR5 assay (cAMP generation, HTRF)
Conditions: HEK293 cells stably transfected with human TGR5; cAMP by HTRF; 30 minutes at 37° C.; read-out: pEC50 Human TGR5 (converted)
Method in brief: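 Read-out was HTRF detection of cAMP, converted to concentration via a standard curve and fitted (3-parameter logistic) for pEC50 and maximal response. Agonist stimulation used HEK293 cells stably transfected with human TGR5, incubated 30 min at 37° C in IBMX-containing buffer at 0.05 nM to 10 μM compound.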

| Compound | EC50 |
| --- | --- |
| CC(CCCC(=O)N1CCC(NC[C@H](O)[C@@H](O)[C@H](O)[C@H](O)C(=O)O)CC1)c1ccc(Cl)c(CNC2(c3cnccc3-c3ccccc3OC3CC3)CC2)c1 (stereo partly drawn) [Compound I-318, (2S,3S,4R,5S)-6-{[1-(5-{4-chloro-3-[({1-[4-(2-cyclopropoxyphenyl)pyridin-3-yl]cyclopropyl}amino)methyl]phenyl}hexanoyl)piperidin-4-yl]amino}-2,3,4,5-tetrahydroxyhexanoic acid] | < 100 nM |
| CN(C)S(=O)(=O)c1ccc(Cl)c(COC2(c3cnccc3-c3ccccc3OC3CC3)CC2)c1 [Compound I-393, 4-chloro-3-([1-[4-(2-cyclopropoxyphenyl)pyridin-3-yl]cyclopropoxy]methyl)-N,N-dimethylbenzene-1-sulfonamide] | < 100 nM |
| CC(CCCC(=O)N(CCS(=O)(=O)N1CCOCC1)C[C@H](O)[C@@H](O)[C@H](O)[C@H](O)CO)c1ccc(Cl)c(CNC2(c3cnccc3-c3ccccc3OC3CC3)CC2)c1 (stereo partly drawn) [Compound I-262, 5-(4-chloro-3-(((1-(4-(2-cyclopropoxyphenyl)pyridin-3-yl)cyclopropyl)amino)methyl)phenyl)-N-(2-(morpholinosulfonyl)ethyl)-N-((2S,3R,4R,5R)-2,3,4,5,6-pentahydroxyhexyl)hexanamide] | < 100 nM |
| CCS(=O)(=O)CCN(CCCC(C)c1ccc(Cl)c(CNC2(c3cnccc3-c3ccccc3OC3CC3)CC2)c1)C(=O)[C@@H](O)[C@@H](O)[C@H](O)[C@@H](O)CO (stereo partly drawn) [Compound I-293, (2S,3S,4R,5S)-N-(4-{4-chloro-3-[({1-[4-(2-cyclopropoxyphenyl)pyridin-3-yl]cyclopropyl}amino)methyl]phenyl}pentyl)-N-[2-(ethanesulfonyl)ethyl]-2,3,4,5,6-pentahydroxyhexanamide] | < 100 nM |
| O=C(O)CCC(=O)N(CCCCc1cc(Cl)c(COC2(c3cnccc3-c3ccccc3OC3CC3)CC2)cc1Cl)C[C@H](O)[C@@H](O)[C@H](O)[C@H](O)CO (stereo in doubt) [Compound I-187, 3-({4-[2,5-dichloro-4-({1-[4-(2-cyclopropoxyphenyl)pyridin-3-yl]cyclopropoxy}methyl)phenyl]butyl}[(2S,3R,4R,5R)-2,3,4,5,6-pentahydroxyhexyl]carbamoyl)propanoic acid] | < 100 nM |
| C[C@@H](CCCC(=O)N(C)C[C@H](O)[C@@H](O)[C@H](O)[C@H](O)CO)c1ccc(Cl)c(CNC2(c3cnccc3-c3ccccc3OC3CC3)CC2)c1 (single isomer, unassigned) [Compound I-325] | < 100 nM |
| NC(=O)CN(CCCCc1cc(Cl)c(COC2(c3cnccc3-c3ccccc3OC3CC3)CC2)cc1Cl)C(=O)[C@@H](O)[C@@H](O)[C@H](O)[C@@H](O)CO [Compound I-82, (2S,3S,4R,5S)-N-(carbamoylmethyl)-N-{4-[2,5-dichloro-4-({1-[4-(2-cyclopropoxyphenyl)pyridin-3-yl]cyclopropoxy}methyl)phenyl]butyl}-2,3,4,5,6-pentahydroxyhexanamide] | < 100 nM |
| CC(C)N(CCCCNC(=O)N[C@@H](CO)[C@@H](O)[C@H](O)[C@H](O)CO)S(=O)(=O)c1ccc(Cl)c(COC2(c3cnccc3-c3ccccc3OC3CC3)CCC2)c1 [Compound I-746, 4-chloro-3-((1-(4-(2-cyclopropoxyphenyl)pyridin-3-yl)cyclobutoxy)methyl)-N-isopropyl-N-(4-(3-((2S,3R,4S,5R)-1,3,4,5,6-pentahydroxyhexan-2-yl)ureido)butyl)benzenesulfonamide] | < 100 nM |
| COCCN(CCCCc1cc(Cl)c(COC2(c3cnccc3-c3ccccc3OC3CC3)CC2)cc1C)C(=O)NC[C@H](O)[C@@H](O)[C@H](O)[C@H](O)CO [Compound I-116, 1-{4-[5-chloro-4-({1-[4-(2-cyclopropoxyphenyl)pyridin-3-yl]cyclopropoxy}methyl)-2-methylphenyl]butyl}-1-(2-methoxyethyl)-3-[(2S,3R,4R,5R)-2,3,4,5,6-pentahydroxyhexyl]urea] | < 100 nM |
| CCN(CCCCNC(=O)NC[C@H](O)[C@@H](O)[C@H](O)[C@H](O)CO)S(=O)(=O)c1ccc(Cl)c(COC2(c3cnccc3-c3ccccc3OC3CC3)CC2)c1 [Compound I-390, 4-chloro-3-((1-(4-(2-cyclopropoxyphenyl)pyridin-3-yl)cyclopropoxy)methyl)-N-ethyl-N-(4-(3-((2S,3R,4R,5R)-2,3,4,5,6-pentahydroxyhexyl)ureido)butyl) benzenesulfonamide] | < 100 nM |
| COCCCN(C[C@H](O)[C@@H](O)[C@H](O)[C@H](O)CO)C(=O)CCCC(C)c1ccc(C)c(CNC2(c3cnccc3-c3ccccc3OC3CC3)CC2)c1 (stereo partly drawn) [Compound I-362, 5-{3-[({1-[4-(2-cyclopropoxyphenyl)pyridin-3-yl]cyclopropyl}amino)methyl]-4-methylphenyl}-N-(3-methoxypropyl)-N-[(2S,3R,4R,5R)-2,3,4,5,6-pentahydroxyhexyl]hexanamide] | < 100 nM |
| CC(CCCCN(CCOCCO)C(=O)[C@@H](O)[C@@H](O)[C@H](O)[C@@H](O)CO)c1ccc(Cl)c(CNC2(c3cnccc3-c3ccccc3OC3CC3)CC2)c1 (stereo partly drawn) [Compound I-288, (2S,3S,4R,5S)-N-(5-{4-chloro-3-[({1-[4-(2-cyclopropoxyphenyl)pyridin-3-yl]cyclopropyl}amino)methyl]phenyl}hexyl)-2,3,4,5,6-pentahydroxy-N-[2-(2-hydroxyethoxy)ethyl]hexanamide] | < 100 nM |
| NC(=O)CN(C[C@H](O)[C@@H](O)[C@H](O)[C@H](O)CO)C(=O)CCCCc1cc(Cl)c(COC2(c3cnccc3-c3ccccc3OC3CC3)CC2)cc1Cl (stereo in doubt) [Compound I-208, N-(carbamoylmethyl)-5-[2,5-dichloro-4-({1-[4-(2-cyclopropoxyphenyl)pyridin-3-yl]cyclopropoxy}methyl)phenyl]-N-[(2S,3R,4R,5R)-2,3,4,5,6-pentahydroxyhexyl]pentanamide] | < 100 nM |

The remaining lines, values ahead:

| EC50 | Compound |
| --- | --- |
| 126 to 1000 nM | Cc1ccc(SCCCN(C(=O)[C@@H](O)[C@@H](O)[C@H](O)[C@@H](O)CO)C2CCOCC2)cc1COC1(c2cnccc2-c2ccccc2OC2CC2)CC1 [Compound I-540, (2S,3S,4R,5S)-N-(3-{[3-({1-[4-(2-cyclopropoxyphenyl)pyridin-3-yl]cyclopropoxy}methyl)-4-methylphenyl]sulfanyl}propyl)-2,3,4,5,6-pentahydroxy-N-(oxan-4-yl)hexanamide] |
| 126 to 1000 nM | O=C([C@@H](O)[C@@H](O)[C@H](O)[C@@H](O)CO)N(CCCCO)CCCSc1ccc(Cl)c(COC2(c3cnccc3-c3ccccc3OC3CC3)CC2)c1 [Compound I-519, (2S,3S,4R,5S)-N-(3-{[4-chloro-3-({1-[4-(2-cyclopropoxyphenyl)pyridin-3-yl]cyclopropoxy}methyl)phenyl]sulfanyl}propyl)-2,3,4,5,6-pentahydroxy-N-(4-hydroxybutyl)hexanamide] |
| 126 to 1000 nM | CCNC(=O)[C@@H](CCCCNS(=O)(=O)c1ccc(Cl)c(COC2(c3cnccc3-c3ccccc3OC3CC3)CC2)c1)NC(=O)NC[C@H](O)[C@@H](O)[C@H](O)[C@H](O)CO [Compound I-482, (2R)-6-[4-chloro-3-({1-[4-(2-cyclopropoxyphenyl)pyridin-3-yl]cyclopropoxy}methyl)benzenesulfonamido]-N-ethyl-2-({[(2S,3R,4R,5R)-2,3,4,5,6-pentahydroxyhexyl]carbamoyl}amino)hexanamide] |
| < 100 nM | [2H]C([2H])(NC(=O)N[C@@H](CO)[C@@H](O)[C@H](O)[C@H](O)CO)C([2H])([2H])C([2H])([2H])C([2H])([2H])N(C)S(=O)(=O)c1ccc(Cl)c(COC2(c3cnccc3-c3ccccc3OC3CC3)CC2)c1 [Compound I-735, 1-(4-[N-methyl[4-chloro-3-([1-[4-(2-cyclopropoxyphenyl)pyridin-3-yl]cyclopropoxy]methyl)benzene]sulfonamido](d8)butyl)-3-[(2S,3R,4S,5R)-1,3,4,5,6-pentahydroxyhexan-2-yl]urea] |
| < 100 nM | O=C(CCCSc1ccc(Cl)c(COC2(c3cnccc3-c3ccccc3OC3CC3)CC2)c1)N(CCCO)C[C@H](O)[C@@H](O)[C@H](O)[C@H](O)CO [Compound I-661, 4-{[4-chloro-3-({1-[4-(2-cyclopropoxyphenyl)pyridin-3-yl]cyclopropoxy}methyl)phenyl]sulfanyl}-N-(3-hydroxypropyl)-N-[(2S,3R,4R,5R)-2,3,4,5,6-pentahydroxyhexyl]butanamide] |
| < 100 nM | CC(CCSc1ccc(Cl)c(COC2(c3cnccc3-c3ccccc3OC3CC3)CC2)c1)C(=O)NC[C@H](O)[C@@H](O)[C@H](O)[C@H](O)CO (stereo partly drawn) [Compound I-690, 4-{[4-chloro-3-({1-[4-(2-cyclopropoxyphenyl)pyridin-3-yl]cyclopropoxy}methyl)phenyl]sulfanyl}-2-methyl-N-[(2S,3R,4R,5R)-2,3,4,5,6-pentahydroxyhexyl]butanamide] |
| 1260 to 10000 nM | Cc1ccc(CCCCC(=O)N(C)C[C@H](O)[C@@H](O)[C@H](O)[C@H](O)CO)nc1COC1(c2cnccc2-c2ccccc2OC2CC2)CC1 [Compound I-709] |
| < 100 nM | CC(=O)N(CCCSc1ccc(Cl)c(CNC2(c3cnccc3-c3ccccc3OC3CC3)CC2)c1)C[C@H](O)[C@@H](O)[C@H](O)[C@H](O)CO [Compound I-502, N-[3-({4-chloro-3-[({1-[4-(2-cyclopropoxyphenyl)pyridin-3-yl]cyclopropyl}amino)methyl]phenyl}sulfanyl)propyl]-N-[(2S,3R,4R,5R)-2,3,4,5,6-pentahydroxyhexyl]acetamide] |
